Source: patent US11685741B2, “Fluorescent probes” (University of Massachusetts, priority 2017, dated 2023)

Assays:
zebrafish = experiment: Zebrafish confocal imaging of free Fe2+; format: in vivo
Method: Embryos were collected from natural spawning and raised up in embryo medium (M. Santra, et al. Chem. Commun., 2009, 10, 2115). Zebrafish mutant strain Casper was utilized because it lacks pigment, allowing better visualization (J. A. Lister, et al., Development, 1999, 126, 3757). Zebrafish embryos at 6 days post fertilization (dpf) were incubated with 10 μM NIRh-Fret in embryo media for 1 h at 28° C. In addition, iron (II) loaded zebrafish (100 μM Fe (NH4)2(SO4)2 for 8 hours incubation) were incubated with 10 μM NIRh-Fret in embryo media for 1 h at 28° C. The treated zebrafish were imaged by a LSM710 confocal microscope.
The ability of NIRh-Fret to detect free Fe^2+ in zebrafish was further investigated using confocal microscopy. […] For Fe^2+ replete conditions, live zebrafish were incubated with 100 μM of ferrous ammonium sulfate (Fe (NH4)2(SO4)2) at 28° C. for 8 h followed by washing with E3 medium to remove excess Fe^2+ and then 10 μM of NIRh-Fret was added to the culture media and was incubated at 28° C. for 30 min.
In addition, the red-colored region was observed as a well-localized red round spot, being the intestine region of the 6-days-old zebrafish.

[1] = tested on: human fibroblast cells (ws1); experiment: Confocal imaging of Fe3+ with Rh-PK in ws1 cells; format: cell-based
Method: Human SH-SY5Y neuroblastoma cells and primary fibroblast ws1 cells were obtained from ATCC (American Type Culture Collection). Cells were maintained in a 1:1 mixture of Eagle's Minimal Essential medium (ATCC) and Ham's F12 medium (ATCC) supplemented with 10% fetal bovine serum (FBS, ATCC) without antibiotics and incubated at 37° C. in a humidified 5% CO2 atmosphere. The cells were routinely sub-cultured using 0.05% trypsin-EDTA solution (ATCC). The cells were seeded onto 2-chamber slides for 48 h at 5×10^4 cells/chamber and grown until each chamber was 20-30% confluent. A stock solution of Rh-PK ([…] in […]) was diluted to a concentration of […] in culture medium without FBS. […] The fluorescence responses of the sensor in living cells were measured under a Zeiss LSM 710 laser scanning confocal microscope. […] The REUSE function controlled by Zeiss software was applied to guarantee that all spectra were recorded under the same instrumental conditions.
The ability of Rh-PK to track Fe^3+ in live human fibroblast cells (ws1) was tested via a laser scanning confocal microscope (Zeiss LSM 710). […] Turn on fluorescence was observed, which is likely being triggered by endogenous labile Fe^3+. […]
FIG. 17A to FIG. 17C show the distribution of exchangeable Fe^3+ pools in live fibroblast cells (ws1). […] FIG. 17A is the Rh-PK-Fe3+ fluorescence intensity collected at 547-703 nm (red). […]

SMILES	fluorescence of Fe^2+-treated zebrafish versus unsupplemented (zebrafish; 100 μM ferrous ammonium sulfate 8 h, then 10 μM NIRh-Fret 30 min)	fluorescence of zebrafish with sensor only (zebrafish; 6-days-old zebrafish, 10 μM NIRh-Fret)	fluorescence of Fe^3+-loaded cells versus before loading ([1]; 10 μM Rh-PK, cells loaded with 50 μM Fe^3+)	fluorescence response after Fe^3+ pre-depletion ([1]; SIH 100 μM overnight, then Rh-PK)
CCN(CC)c1ccc2c(c1)OC1=C(CCC/C1=C\C=C1\N(C)c3ccccc3C1(C)C)C21c2ccccc2C(=O)N1/N=C\C=C\c1ccc(N(C)C)cc1 (stereo not shown) [NIRh-Fret, (E)-6′-(diethylamino)-2-(((1Z,2E)-3-(4-(dimethylamino)phenyl)allylidene)amino)-4′-(2-((E)-1,3,3-trimethylindolin-2-ylidene)ethylidene)-1′,2′,3′,4′-tetrahydrospiro[isoindoline-1,9′-xanthen]-3-one]	significant increase in fluorescent signals	weak fluorescence		
CCN(CC)c1ccc2c(c1)Oc1cc(N(CC)CC)ccc1C21c2ccccc2C(=O)N1CC/N=C(\C)c1cccc(C(C)=O)n1 [Rh-PK, (E)-2-(2-((1-(6-acetylpyridin-2-yl)ethylidene)amino)ethyl)-3′,6′-bis(diethylamino)spiro[isoindoline-1,9′-xanthen]-3-one]			brighter and more widely distributed fluorescence signals	weaker fluorescence response
